According to publication PMC12751014, “Non-Catalytic Inhibitors of the p38/MK2 Interface: Repurposing Approved Drugs to Target Neuroinflammation in Alzheimer’s Disease” (Journal of Medicinal Chemistry, 2025):
Entries after “also recorded” stand apart in the source; their conditions may differ. Where no end group is shown, it is not given here.

Legend:
p38/MK2 interaction [1] = target: T1, p38/MK2 interaction (Homo sapiens, UniProt Q16539); assay: TR-FRET ultra-high-throughput screening (uHTS), 1536-well, HEK293T lysate VF-p38α / GST-MK2; type: binding; set-up: inhibition of p38/MK2 interaction, primary screen: concentration or dose not given beside the values; settings: for 620 nm Fold over Control: fluorescence interference readout; for Pct of control: uHTS TR-FRET signal, Emory Enriched Library; for inhibition of p38/MK2 interaction, primary screen: relative to DMSO control, 1536-well
T1 sequence (Q16539 whole entry): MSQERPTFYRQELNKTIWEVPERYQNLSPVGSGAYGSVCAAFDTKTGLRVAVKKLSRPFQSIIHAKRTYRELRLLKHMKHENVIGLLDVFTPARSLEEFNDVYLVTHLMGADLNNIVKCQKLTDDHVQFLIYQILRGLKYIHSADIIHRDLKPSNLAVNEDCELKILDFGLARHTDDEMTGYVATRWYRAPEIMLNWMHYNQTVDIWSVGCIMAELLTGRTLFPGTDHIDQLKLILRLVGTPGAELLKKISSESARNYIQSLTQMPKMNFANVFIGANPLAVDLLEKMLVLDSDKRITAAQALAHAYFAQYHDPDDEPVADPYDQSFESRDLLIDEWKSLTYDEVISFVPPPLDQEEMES

p38/MK2 interaction [2] = target: T1, p38/MK2 interaction; assay: TR-FRET assay with purified recombinant His-p38 and GST-MK2; type: binding; settings: for IC50: purified His-p38 and GST-MK2, read-out: IC50, inhibition of p38/MK2 PPI (TR-FRET, recombinant purified proteins); for inhibition at 30 µM: read-out: inhibition of p38/MK2 PPI at 30 μM, recombinant purified proteins
Method: ENSG00000112062, UniProt ID: Q16539-1) was cloned into a pMCSG7 vector and transformed into Escherichia coli strain BL21(DE3). […] The resuspended cells were lysed through sonication. The lysate was centrifuged for 20 min at 70,000g at 4 °C and the clarified supernatant was passed through a gravity column containing 2 mL Ni-NTA resin pre-equilibrated with equilibration buffer. The resin was then washed with 25 column volumes of equilibration buffer supplemented with 40 mM imidazole, and the protein was eluted with equilibration buffer supplemented with 200 mM imidazole. […] The purity of the enzyme was verified by sodium dodecyl sulfate-polyacrylamide gel electrophoresis (SDS-PAGE) with Coomassie staining, aliquots flash frozen in liquid nitrogen, and stored at -80 °C.

[3] = target: VF-tagged p38 / His-tagged MK2 346–400 docking peptide (Homo sapiens, UniProt Q16539); assay: Cell lysate-based TR-FRET competition assay, VF-p38 / His-MK2 346–400 docking peptide; settings: HEK293T lysate TR-FRET; read-out: IC50, binding of His-MK2 346–400 docking peptide to VF-p38
Chain of VF-tagged p38 / His-tagged MK2 346–400 docking peptide (Q16539 whole entry): as above

p38/MK2 interaction [4] = target: T1, p38/MK2 interaction; assay: Cell lysate-based TR-FRET (VF-p38 / GST-MK2, HEK293T lysate), dose-response; type: binding; settings: read-out: IC50, p38/MK2 PPI, cell lysate-based TR-FRET
HMC3 microglial cells = assay: qRT-PCR of LPS-induced cytokine expression in HMC3 microglial cells; type: cell-based, human; settings: HMC3, 5 μM compound 1 h before 100 ng/mL LPS 4 h
Method: HMC3 cells were treated with 100 ng/mL E. coli LPS (Sigma-Aldrich, catalog no. L4005) for 4 h in DMEM media. […] Following pretreatment, iMGLs were challenged with 100 ng/mL LPS and 20 ng/mL interferon-γ (IFN-γ) for 24 h to induce an inflammatory response. At the end of the stimulation, cell lysates were collected for qPCR analysis of TNF-α […] gene expression. Total RNA isolation from cell samples was conducted using the RNeasy Plus kit (Qiagen, catalog no. 74134) according to manufacturer instructions and treated with DNase I (Invitrogen, catalog no. 18068-015). Extracted RNA was quantified using the Nanodrop One Spectrophotometer (Thermo Scientific) and then reverse-transcribed into cDNA in equal quantity (<1000 ng/reaction) with the SuperScript III System (Invitrogen, catalog no. 18080-051) following manufacturer directions. cDNA sample was treated with RNase H (Invitrogen, catalog no. 18021014) and diluted to 4 ng/μL equivalent of the starting total RNA. qPCR was performed in 96-well PCR plates (BioRad, catalog no. HSP9601) using the Realplex4Mastercycler (Eppendorf). Each reaction well combines 5 μL cDNA sample, 10 μL 2X SYBR Green Supermix (BioRad, catalog no. 1725271), 1 μL 5 μM primer mix for each target gene, and nuclease-free water up to 20 μL. […] The primer sequences used were: TNFα forward [NT], reverse [NT]-6 forward [NT], reverse [NT]-1β forward [NT], reverse [NT] Each gene was expression-normalized against the housekeeping gene GAPDH with the primer sequences: forward [NT], reverse [NT] Primers were obtained from Integrated DNA Technologies in lyophilized form. The cycler program was set to denaturation at 95 °C for 15 s, followed by annealing and extension at 60 °C for 60 s, repeated for 40 PCR cycles. Melting curve analyses were performed for each sample to ensure primer specificity. The experiment was performed in biological quadruplicates and technical quadruplicates.

[5] = target: T2, His-tagged p38α (MAPK14), purified recombinant (human, UniProt Q16539-1 1-360); assay: fluorescence polarisation; 10 nM FITC-MK2 peptide with His-p38α serially diluted 2-fold from a 5 uM working solution; 20 mM Tris-HCl pH 7.0, 50 mM NaCl, 0.01% NP-40; 384-well plate; settings: both partners purified
T2 construct: also called His-p38; His-p38α; source: E. coli BL21(DE3), purified (Ni-NTA, S200 size exclusion), in-house; or bought: Abcam AB271606; for the FP assay obtained from research collaborators
T2 sequence (Q16539 whole entry): as above

[6] = target: T2, His-tagged p38α (MAPK14), purified …; assay: FRET or BRET; TR-FRET with purified His-p38α (10 nM) and GST-MK2 (1 uM), anti-His-d2 and anti-GST-Tb antibodies; 20 mM Tris-HCl pH 7.0, 50 mM NaCl, 0.01% NP-40; room temperature, 2 h; peptides or compounds added as competitors; settings: both partners purified

With C=CC(=O)Nc1ccc2ncnc(Nc3ccc(OCc4cccc(F)c4)c(Cl)c3)c2c1 [AST-1306, N-[4-[3-chloro-4-[(3-fluorophenyl)methoxy]anilino]quinazolin-6-yl]prop-2-enamide;4-methylbenzenesulfonic acid] the “620 nm Fold over Control” value (p38/MK2 interaction [1]) was 1.01 and the Pct of control (p38/MK2 interaction [1]) was 9.2 Pct of control.

Work on Cc1cn(-c2cc(C(=O)Nc3ccc(C)c(Nc4nccc(-c5cccnc5)n4)c3)cc(C(F)(F)F)c2)cn1 [Compound 3] yielded an IC50 (p38/MK2 interaction [2]) of 7.45 µM.

For Cc1cc(C(C#N)c2ccc(Cl)cc2)c(Cl)cc1NC(=O)c1cc(I)cc(I)c1O (stereo not drawn) [closantel], the “inhibition of p38/MK2 interaction, primary screen” value (shortened to “inhibition of p38/MK2 interaction”) (p38/MK2 interaction [1]) was 53%.

With CCCCCCCCCCCCc1ccc(S(=O)(=O)Nc2nncs2)cc1 [PHT-427, 4-dodecyl-N-(1,3,4-thiadiazol-2-yl)benzenesulfonamide] the “620 nm Fold over Control” value (p38/MK2 interaction [1]) was 0.94 and the Pct of control (p38/MK2 interaction [1]) was -2.49 Pct of control.

O=c1ncn2nc(Sc3ccc(F)cc3F)ccc2c1-c1c(Cl)cccc1Cl [VX-745] was tested, and the “disruption of p38/MK2 interaction (TR-FRET signal)” value (p38/MK2 interaction [2]; recombinant p38 and MK2 purified from E. coli) was “failed to disrupt the interaction; also recorded: failed to reduce the TR-FRET signal”.

C[C@@H]1[C@H](O)[C@@H](C)/C=C/C=C/C=C/C=C/C=C/C=C/C=C/[C@H](O[C@@H]2O[C@H](C)[C@@H](O)[C@H](N)[C@@H]2O)C[C@@H]2O[C@](O)(C[C@@H](O)C[C@@H](O)[C@H](O)CC[C@@H](O)C[C@@H](O)CC(=O)O[C@H]1C)C[C@H](O)[C@H]2C(=O)O [amphotericin B] was tested, and the “inhibition of p38/MK2 interaction” value (p38/MK2 interaction [1]) was 51%.

With Cc1cn(-c2cc(NC(=O)c3ccc(C)c(Nc4ncccn4)c3)cc(C(F)(F)F)c2)cn1 [Compound 5] the IC50 (p38/MK2 interaction [2]) was 11.5 µM.

With COc1cc2nc(N3CCN(C(=O)C4COc5ccccc5O4)CC3)nc(N)c2cc1OC (stereo not drawn) [doxazosin] the IC50 [3] was 4.6 µM, the IC50 (p38/MK2 interaction [4]) was 30.1 µM and the “inhibition of p38/MK2 interaction” value (p38/MK2 interaction [1]) was 58%. The “LPS-induced TNF-α, IL-6, and IL-1β expression” value (“LPS-induced TNF-α” below) (HMC3 microglial cells) was “significantly (p-values <0.05) suppressed” and the IC50 (p38/MK2 interaction [2]) was 4.4 µM.

With COc1ccc(CC(=O)Nc2cc(-n3cnc(C)c3)cc(C(F)(F)F)c2)nc1 [Compound 10] the inhibition at 30 µM (p38/MK2 interaction [2]) was under 50%.

For COc1cc2nc(N(C)CCCNC(=O)C3CCCO3)nc(N)c2cc1OC (stereo not drawn) [alfuzosin], the IC50 [3] was 14.4 µM, the IC50 (p38/MK2 interaction [4]) was 10 µM and the “inhibition of p38/MK2 interaction” value (p38/MK2 interaction [1]) was 82%. The “LPS-induced TNF-α” value (HMC3 microglial cells) was “significantly (p-values <0.05) suppressed” and the IC50 (p38/MK2 interaction [2]) was 6.9 µM.

With CN1CCc2cccc3c2[C@H]1Cc1ccc(O)c(O)c1-3 [apomorphine] the “inhibition of p38/MK2 interaction” value (p38/MK2 interaction [1]) was 56%.

In the case of Cc1cn(-c2cc(NC(=O)Nc3nnc(-c4ccncc4)s3)cc(C(F)(F)F)c2)cn1 [Compound 7], the inhibition at 30 µM (p38/MK2 interaction [2]) is reported as under 50%.

For Cc1cn(-c2cc(NC(=O)c3ccc(O)c(Nc4nccc(-c5cccnc5)n4)c3)cc(C(F)(F)F)c2)cn1 [Compound 4], the IC50 (p38/MK2 interaction [2]) was 8.24 µM.

Molecule CNC(=O)c1ccc(CCNC(=O)C(=O)Nc2cc(-n3cnc(C)c3)cc(C(F)(F)F)c2)cc1 [Compound 6] has an IC50 (p38/MK2 interaction [2]) of 21.3 µM.

For Cc1cn(-c2cc(NC(=O)c3[nH]cnc3C#N)cc(C(F)(F)F)c2)cn1 [Compound 9], the inhibition at 30 µM (p38/MK2 interaction [2]) was under 50%.

Work on CCc1cn(-c2cc(NC(=O)c3ccc(C)c(Nc4nccc(-c5cccnc5)n4)c3)cc(C(F)(F)F)c2)cn1 [Compound 2] yielded an IC50 (p38/MK2 interaction [2]) of 2.27 µM.

Cc1cn(-c2cc(NC(=O)C(=O)NCc3cccc(C(N)=O)c3)cc(C(F)(F)F)c2)cn1 [Compound 8] was tested, and the inhibition at 30 µM (p38/MK2 interaction [2]) was under 50%.

For CS(=O)(=O)c1ccc(C2=C(c3ccccc3)C(=O)OC2)cc1 [rofecoxib], the “inhibition of p38/MK2 interaction” value (p38/MK2 interaction [1]) was 73%.

CCOc1nc2cccc(C(=O)OC(C)OC(=O)OC3CCCCC3)c2n1Cc1ccc(-c2ccccc2-c2nnn[nH]2)cc1 (stereo not drawn) [candesartan cilexetil] was tested, and the “inhibition of p38/MK2 interaction” value (p38/MK2 interaction [1]) was 68%.

With COc1cc2nc(N3CCN(C(=O)C4CCCO4)CC3)nc(N)c2cc1OC (stereo not drawn) [terazosin] the IC50 [3] was 8.3 µM, the IC50 (p38/MK2 interaction [4]) was 10.5 µM and the “inhibition of p38/MK2 interaction” value (p38/MK2 interaction [1]) was 77%. For the same molecule, the “LPS-induced TNF-α” value (HMC3 microglial cells) was “significantly (p-values <0.05) suppressed” and the IC50 (p38/MK2 interaction [2]) was 6.2 µM.

For CN(C)[C@@H]1C(O)=C(C(N)=O)C(=O)[C@@]2(O)C(O)=C3C(=O)c4c(O)cccc4[C@@](C)(O)[C@H]3[C@H](O)[C@@H]12 [oxytetracycline], the “inhibition of p38/MK2 interaction” value (p38/MK2 interaction [1]) was 51%.

In the case of C=C(c1ccc(C(=O)O)cc1)c1cc2c(cc1C)C(C)(C)CCC2(C)C [bexarotene], the “inhibition of p38/MK2 interaction” value (p38/MK2 interaction [1]) is reported as 74%.

B1: FITC-MK2 370–393 peptide (peptide, UniProt P49137 370-393, looked up)
peptide: IKIKKIEDASNPLLLKRRKKARAL
modifications: not fully specified (N-terminus); also: FITC label (position not given here)
notes: MK2 (MAPKAPK2) C-terminal docking motif, residues 370-393 (I370-L393); the methods name the peptide 370-390; also called I370–L393; FITC conjugated MK2 370–390 peptide (methods); source: synthetic peptide, bought: GenScript
With B1 the EC50 [5] was 0.0269 µM and the IC50 [6] was 0.42 µM.

B2: FITC-MK2 369–382 peptide (peptide, UniProt P49137 369-382, looked up)
peptide: QIKIKKIEDASNPL
modifications: not fully specified (N-terminus); also: FITC label (position not given here)
notes: MK2 (MAPKAPK2) C-terminal docking motif, residues 369-382 as named in the text; 369-382 would be 14 residues; the legend's I370-L382 is 13 residues; also called I370-L382; truncated 13-residue peptide
With B2 the IC50 [6] was 4.26 µM.
